Results reported in ChEMBL document CHEMBL1133388, “4-Aza-2,3-dehydro-4-deoxypodophyllotoxins: simple aza-podophyllotoxin analogues possessing potent cytotoxicity” (Bioorg Med Chem Lett, 2000).
Values after ≈ are worked out from the molar mass of the structure shown.

These compounds were tested on P388 (assay: Cytotoxicity against P-388 leukemia cells). Conditions: Mus musculus.
Format: functional, cell-based

First: COc1cc2nc3c(c(-c4ccc5c(c4)OCO5)c2cc1OC)C(=O)OC3
Second: COc1ccc(-c2c3c(nc4cc5c(cc24)OCO5)COC3=O)cc1OC
The IC50 of the first is 20-fold lower: 2 µg/mL (≈ 5.47 µM) for the first, 40 µg/mL (≈ 109 µM) for the second.

`COc1ccc(-c2c3c(nc4cc5c(cc24)OCO5)COC3=O)cc1` and `COc1cccc(-c2c3c(nc4cc5c(cc24)OCO5)COC3=O)c1` cannot be ordered by IC50: greater than 100 µg/mL for the first, greater than 100 µg/mL for the second.

Compared with `COc1cc(C2C3=C(COC3=O)Nc3cc4c(cc32)OCO4)cc(OC)c1OC` (centres undefined), `COc1cc(C2C3=C(O)CCC3=Nc3cc4c(cc32)OCO4)cc(OC)c1OC` (centres undefined) is 16-fold higher in IC50: 0.0018 µg/mL (≈ 0.00453 µM) for the first, 0.028 µg/mL (≈ 0.0708 µM) for the second.

Compared with `COc1cc(C2C3=C(O)OCC3=Nc3cc4c(cc32)-c2ccccc2C4)cc(OC)c1OC` (centres undefined), `COc1cc(C2C3=C(O)OCC3=Nc3cc4c(cc32)CCC4)cc(OC)c1OC` (centres undefined) is 220-fold lower in IC50: 0.92 µg/mL (≈ 2.08 µM) for the first, 0.0041 µg/mL (≈ 0.0104 µM) for the second.

Compared with `COc1cc2nc3c(c(-c4cc(OC)c(OC)c(OC)c4)c2cc1OC)C(=O)OC3`, `COc1ccc(-c2c3c(nc4cc(OC)c(OC)cc24)COC3=O)cc1OC` is lower in IC50: greater than 100 µg/mL for the first, 39 µg/mL (≈ 102 µM) for the second.

First: COc1cc(C2C3=C(O)OCC3=Nc3cc4c(cc32)OCCO4)cc(OC)c1OC (centres undefined)
Second: COc1cc2c(cc1OC)C(c1cc(OC)c(OC)c(OC)c1)C1=C(O)OCC1=N2 (centres undefined)
The IC50 of the first is 2900-fold lower: 0.0017 µg/mL (≈ 0.00413 µM) for the first, 4.9 µg/mL (≈ 11.9 µM) for the second.

Going from `COc1ccc(C2C3=C(O)OCC3=Nc3cc4c(cc32)OCO4)cc1` (centres undefined) to `COc1cccc(C2C3=C(O)OCC3=Nc3cc4c(cc32)OCO4)c1` (centres undefined), the IC50 falls from 0.13 µg/mL (≈ 0.385 µM) to 0.0053 µg/mL (≈ 0.0157 µM) (25-fold).

Compared with `COc1cc(-c2c3c(nc4cc(OC)c(OC)c(OC)c24)COC3=O)cc(OC)c1OC`, `COc1cc(C2C3=C(COC3=O)Nc3cc(OC)c(OC)c(OC)c32)cc(OC)c1OC` (centres undefined) is 11-fold lower in IC50: 29 µg/mL (≈ 65.7 µM) for the first, 2.6 µg/mL (≈ 5.86 µM) for the second.

`COc1cc2c(cc1OC)C(c1ccc3c(c1)OCO3)C1=C(O)OCC1=N2` (centres undefined) and `COc1ccc(C2C3=C(O)OCC3=Nc3cc(OC)c(OC)cc32)cc1OC` (centres undefined) are within 1.5-fold of each other in IC50: 0.77 µg/mL (≈ 2.1 µM) for the first, 0.76 µg/mL (≈ 1.98 µM) for the second.

First: O=C1OCc2nc3cc4c(cc3c(-c3ccccc3)c21)OCO4
Second: O=C1OCc2nc3cc4c(cc3c(-c3ccc5c(c3)OCO5)c21)OCO4
The IC50 of the first is lower: 60 µg/mL (≈ 197 µM) for the first, greater than 100 µg/mL for the second.

First: COc1cc(-c2c3c(nc4cc5c(cc24)OCO5)CCC3=O)cc(OC)c1OC
Second: COc1cc(-c2c3c(nc4cc5c(cc24)OCO5)COC3=O)cc(OC)c1OC
The IC50 of the first is lower: 71 µg/mL (≈ 180 µM) for the first, greater than 100 µg/mL for the second.

Going from `COc1cc(-c2c3c(nc4cc5c(cc24)OCCO5)COC3=O)cc(OC)c1OC` to `COc1cc(-c2c3c(nc4cc5c(cc24)CCC5)COC3=O)cc(OC)c1OC`, the IC50 rises from 80 µg/mL (≈ 195 µM) to greater than 100 µg/mL.

First: COc1ccc(C2c3cc4c(cc3NC3COC(=O)C32)OCO4)cc1OC (centres undefined)
Second: COc1cc([C@@H]2c3cc4c(cc3[C@H](O)[C@H]3COC(=O)[C@H]23)OCO4)cc(OC)c1OC [PODOFILOX]
The IC50 of the first is 11-fold higher: 0.048 µg/mL (≈ 0.13 µM) for the first, 0.0043 µg/mL (≈ 0.0104 µM) for the second.

Going from `COc1cc(-c2c3c(nc4cc5c(cc24)-c2ccccc2C5)COC3=O)cc(OC)c1OC` to `OC1=C2C(=Nc3cc4c(cc3C2c2ccccc2)OCO4)CO1` (centres undefined), the IC50 falls from 63 µg/mL (≈ 143 µM) to 0.0053 µg/mL (≈ 0.0172 µM) (12000-fold).

`OC1=C2C(=Nc3cc4c(cc3C2c2ccc3c(c2)OCO3)OCO4)CO1` (centres undefined) showed an IC50 of 0.03 µg/mL (≈ 0.0854 µM).
